Data reported in patent publication US20080026992A1, “Tyrosine Phosphorylation of Cdk Inhibitor Proteins of the Cip/Kip Family” (priority 2003, published 2008).

Assays:
Assay type in all cases: cell-based, human
[1] = tested on: Lyn; assay: p27 Tyr-88 phosphorylation in 293T cells transfected with Lyn (Western blot, anti-phospho-Y88); details: 10 μM STI-571
Experimental: (§1) HA-tagged p27 was transfected in 293T cells with a Bcr-Abl or Lyn encoding plasmids. […] Equal amounts of cell lysates were analyzed by Western blotting with monoclonal anti-phospho-Y88 antibodies and HRP-conjugated anti-p27 antibodies as indicated. b. […] Western blot analysis was performed with monoclonal anti-phospho-Y88 and HRP-conjugated anti-p27 antibodies. c. […] Cells (1×10^7/ml) were labeled with a ^35S labeled methionine/cysteine mix for 1 hour, and subsequently incubated in the absence of radioactivity for the indicated times. p27 was immunoprecipitated using anti-p27 antibodies. The labeled protein was visualized by autoradiography. The intensity of the bands was determined using a PhosphorImager and is expressed as a fraction of the time point 0. […] One representative experiment is shown.

[2] = tested on: K562 cells; assay: p27 protein level in K562 cells (Western blot); details: 2 or 10 μM STI-571 for 16 hours
Experimental: as §1
(§2) Tyr-88 phosphorylation of p27 in a Bcr-Abl transformed tumor cell line was investigated next. K562 chronic myelogenous leukaemia cells express p210 Bcr-Abl kinase that is sensitive to inhibition with ST-571.

[3] = tested on: K562 cells; assay: p27 stability in K562 cells (35S pulse-chase); details: 10 μM STI-571 for 16 hours
Experimental: as §1, §2

[4] = tested on: K562 cells; assay: Cell cycle analysis by flow cytometry (BrdU/PI) of transfected K562 CML cells; details: moderate expression, 48 hours after transfection, GFP-sorted
Experimental: FIG. 9: p27 Y88F arrests K562 CML cells in G1 phase of the cell cycle. K562 CML cells were transfected with GFP and either 25 ug of p27 or 25 ug of p27-Y88F expression vector. 48 hours after transfection, cells with similar GFP expression level were isolated by flow cytometry cell sorting and the cell cycle distribution of these cells was determined using BrdU incorporation and PI staining. The distribution of these cells in the cell cycle phases is shown. Only p27-Y88F expression leads to an accumulation of G1 phase cells and reduced cells in S-phase.
The percentage of cells in the G1, S and G2/M phases of the cell cycle was determined by two dimensional flow cytometry. The DNA content was determined by staining DNA with the intercalating dye propidium iodide and quantifying the cell fractions with differing DNA content by flow cytometry. In addition, cells in S-phase were labelled with the nucleotide analog bromo 5-bromo-2′-deoxyuridine (BrdU), which is incorporated into newly synthesized DNA. […] Cells were analyzed on FACS ([…] Dickinson) flow cytometer using the CellQuest software. […]

Row | Molecule | Tyr-88 phosphorylation of p27 by Lyn [1] | p27 protein level [2] | p27 stability [3] | S-phase entry [4] | effect on cell cycle / accumulation of cells in G1 phase [4]
1 | Cc1ccc(NC(=O)c2ccc(CN3CCN(C)CC3)cc2)cc1Nc1nccc(-c2cccnc2)n1 [STI-571, 4-[(4-Methyl-1-piperazinyl)methyl]-N-[4-methyl-3-[[4-(3-pyridinyl)-2-pyrimidinyl]amino]-phenyl] benzamide methane sulfonate] | no effect | dramatic increase | increase | – | –
2 | p27-Y88F: mutant of p27 where tyrosine 88 is exchanged to phenylalanine | – | – | – | impaired | increasing cells accumulating in G1 phase
